The values below come from patent US20020042393A1, “Excipient” (priority 1998, published 2002).

Data set [1] is described as follows: Proportion of particles of 75 μm or more (Air Jet Sieve). The data set is classed as physicochemical. The following applies: excipient powder. Here is the method: Five grams of trehalose was weighed onto a screen having a screen opening of 75 μm, and sifted with Air Jet Sieve (Model 200LS, mfd. by ALPINE) for 5 minutes, and the weight percentage of the weight of particles remaining on the screen based on the total weight of particles was calculated as the proportion of particles of 75 μm or more.

Data set [2] is described as follows: Angle of repose (Sugiwara's instrument). The settings on record: excipient powder. The data set is classed as physicochemical. The source says:
Measured by means of a Sugiwara's instrument for measuring angle of repose (Yakuzaigaku 27, p. 260, 1965).

The nature of data set [3]: Change in whiteness of excipient mixed with drug at 40° C. and 75% RH (reactivity). The data set is classed as physicochemical. On the procedure: (§1) For powder of trehalose or a pharmaceutical composition containing trehalose, values of L, a and b were measured with a color analyzer (TC-1800MKII, mfd. by Tokyo Denshoku Co., Ltd.), and the whiteness of the trehalose or pharmaceutical composition was calculated by the following equation: […]
One gram of each of the trehaloses obtained in Example 1 and 1 g of isoniazid were mixed and then allowed to stand in an atmosphere of 40° C. and 75% RH, and the change in whiteness of the trehalose was observed. On the other hand, 1 g of each of the trehaloses obtained in Example 1 and 1 g of aminophyline were mixed and then allowed to stand in an atmosphere of 40° C. and 75% RH, and the change in whiteness of the trehalose was observed.
One gram of 100-mesh lactose (available from De Melkindustrie Veghel bv) or 1 g of Mannit S (available from Tohwa Kasei Co., Ltd.) and 1 g of aminophyline were mixed and then allowed to stand in an atmosphere of 40° C. and 75% RH, and the change in whiteness of the lactose or Mannit S was observed.
As a starting material. […]

Data set [4] in a line: Whiteness of powder (color analyzer). The data set is classed as physicochemical. The settings on record: excipient powder. Here is the method: as §1
Data set [5] can be described thus: Average particle size (sieving, 50% cumulative weight). The following applies: excipient powder. The data set is classed as physicochemical. On the procedure: Five grams of trehalose was sifted through screens having screen openings of 500 μm, 300 μm and 250 μm, respectively, and then sifted with Air Jet Sieve by using screens having screen openings of 150 μm, 75 μm, 45 μm, 38 μm and 32 μm, respectively. The oversize particle weight percentage [%] was calculated for each screen, and the average particle size is expressed as a particle size corresponding to a cumulative weight percentage of 50%.

The next data set can be described thus: Apparent specific volume. The settings on record: excipient powder. The data set is classed as physicochemical. The source says: The whole of 10 g of trehalose powder was gently poured into a 100-ml measuring cylinder without making an impact (in this case, a cylinder having an outside diameter smaller than the inside diameter of the measuring cylinder was placed in the measuring cylinder, and it was slowly lifted after pouring the trehalose), and the apparent specific volume was expressed as a value obtained by dividing the read volume by the weight of the trehalose.

Data set [6] is described as follows: Water content (Karl Fisher) of tablets before and after storage. The settings on record: tablets compressed at 500 kg/cm^2; 0 day; listed as F. The data set is classed as physicochemical. On the procedure: Determined as a value obtained by measuring about 0.1 g of trehalose and determining its water content by the Karl Fisher method.
One hundred grams of commercial “Trehaose” (available from Hayashibara Biochemical Laboratories, Inc.) was dissolved in water to a concentration of about 35 wt %, and the resulting solution was concentrated under reduced pressure with heating at 60° C. so as to have a concentration of about 75 wt %, and allowed to stand at room temperature to precipitate crystals, which were washed with 50 ml of water. Glucose was removed by carrying out the above purification procedure once or twice, to increase the trehalose purity. Trehalose A was obtained by carrying out the purification procedure twice to obtain crystals, drying the crystals, grinding the dried crystals with a bantam mill (number of revolutions 15,000 rpm, feed rate 5 kg/hr, and screen opening 2.0 mmφ), and then sifting the ground crystals through a […]. Trehalose B was obtained by carrying out the purification procedure once to obtain crystals, drying the crystals, grinding the dried crystals with a bantam mill (number of revolutions 10,000 rpm, feed rate 5 kg/hr, and screen opening 2.00 mmφ), and then sifting the ground crystals through a 350-μm screen. Trehalose C was obtained by carrying out the purification procedure once to obtain crystals, drying the crystals, grinding the dried crystals with a bantam mill (number of revolutions 8,000 rpm, feed rate 5 kg/hr, and screen opening 2.0 mmφ), and then sifting the ground crystals through a 350-μm screen. […] Each of trehaloses A to C was compressed into tablets at a compression pressure of 500 kg/cm^2, and the tablet hardness immediately after the compression and the tablet hardness after standing for 3 days in an atmosphere of 40° C. and 75% RH after the compression were compared.
“Trehaose” (available from Hayashibara Bioscience Laboratories Co., Ltd.) was purified once by the method described in Example 1 to obtain crystals, which were dried, ground with a bantam mill (number of revolutions 12,000 rpm, feed rate 5 kg/hr, and screen opening 2.0 mmφ) and then dried at 105° C. for 4 hours to obtain trehalose anhydrous crystals. These crystals were compressed into tablets at a compression pressure of 500 kg/cm^2, and the tablet hardnesses of the tablets were compared in the same manner as in Example 1.

The nature of data set [7]: Tablet hardness (Schleuniger hardness meter). The data set is classed as physicochemical. The settings on record: for Tablet hardness at a compression pressure of 1000 kg/cm^2: phenacetin granules.
Data set [8] in a line: Wet granulation of phenacetin mixture with HPC binder solution: granule size and yield.
[9] abbreviates: 1 g excipient + 1 g aminophyline, 0 day.
The mark [10] stands for this setting: 1 g excipient + 1 g aminophyline, 40° C. and 75% RH, 5 days.

Each structure is given as a SMILES string.

Turning to `OC[C@H]1O[C@H](O[C@H]2O[C@H](CO)[C@@H](O)[C@H](O)[C@H]2O)[C@H](O)[C@@H](O)[C@@H]1O` [Trehalose G, trehalose], the “Proportion of particles of 75 μm or more” value in data set [1] (listed as G) is on record as 13%. The Angle of repose in data set [2] (listed as G) amounted to 49 °. Further, the Whiteness in data set [3] (same manner as in Example 2 (drug not stated), 0 day) is reported as 94%; in [3] (same manner as in Example 2 (drug not stated), 40° C. and 75% RH, 1 month, listed as G), 87%; in [3] (same manner as in Example 2 (drug not stated), 40° C. and 75% RH, 1 month, listed as trehalose G), “less than 90%”; in data set [4] (listed as G), 94%. Further, the Average particle size in data set [5] (listed as G) was found to be 31 μm. Further, in “Apparent specific volume” (listed as G), the Apparent specific volume was determined as 3.1 cm^3/g.

Take `OC[C@H]1O[C@H](O[C@H]2O[C@H](CO)[C@@H](O)[C@H](O)[C@H]2O)[C@H](O)[C@@H](O)[C@@H]1O` [Trehalose F, trehalose]: the “Proportion of particles of 75 μm or more” value in data set [1] (listed as F) is on record as 28%. In addition, in data set [2] (listed as F), the Angle of repose is 45 °. The same compound gave a Water content in [6] of 0.5%. Besides, the Whiteness in data set [4] (listed as F) is 94%. The Average particle size in [5] (listed as F) came out at 49 μm. Further, in the data set “Apparent specific volume” (listed as F), the Apparent specific volume is on record as 2.3 cm^3/g. This compound also yielded a Tablet hardness in data set [7] (tablets compressed at 500 kg/cm^2, 0 day (immediately after compression), listed as F) of 4.5 kgf.

Regarding `OC[C@H]1O[C@H](O[C@H]2O[C@H](CO)[C@@H](O)[C@H](O)[C@H]2O)[C@H](O)[C@@H](O)[C@@H]1O` [Trehalose I, trehalose], the “Proportion of particles of 75 μm or more” value in data set [1] worked out at 95%. The compound further showed an Angle of repose in data set [2] of 30 °. The same compound displayed a Whiteness in data set [4] of 96%. The compound also yielded an Average particle size in [5] of 280 μm. Moreover, the Apparent specific volume in “Apparent specific volume” came out at 1.4 cm^3/g.

Consider `OC[C@@H](O)[C@@H](O)[C@H](O)[C@H](O)CO` [Mannit S, reference compound], for which, in data set [1] (listed as Mannit 5), the “Proportion of particles of 75 μm or more” value stood at 68%. This compound gave an Angle of repose in data set [2] (listed as Mannit 5) of 53 °. In addition, the Whiteness in data set [3] (setting [9]) was 100%; in data set [3] (1 g excipient + 1 g aminophyline, 40° C. and 75% RH, 1 month), 93%; in data set [3] (setting [10]), 98%. Moreover, the Average particle size in data set [5] (listed as Mannit 5) came to 102 μm. The Apparent specific volume in “Apparent specific volume” (listed as Mannit 5) came to 1.7 cm^3/g.

For `OC[C@H]1O[C@H](O[C@H]2O[C@H](CO)[C@@H](O)[C@H](O)[C@H]2O)[C@H](O)[C@@H](O)[C@@H]1O` [Trehalose M, trehalose], the “Proportion of particles of 75 μm or more” value in data set [1] (listed as M) was 1%. The Whiteness in data set [4] (listed as M) was determined as 97%. The compound also had an Average particle size in data set [5] (listed as M) of 8 μm. Also, the Apparent specific volume in “Apparent specific volume” (listed as M) came out at 3.8 mL/g.

As for `OC[C@H]1O[C@@H](O[C@H]2[C@H](O)[C@@H](O)C(O)O[C@@H]2CO)[C@H](O)[C@@H](O)[C@H]1O` (some centres unmarked) [100-Mesh lactose, lactose, reference compound], the “Proportion of particles of 75 μm or more” value in data set [1] came to 76%. Further, in data set [2], the Angle of repose amounted to 43 °. Further, the figures for the Whiteness in data set [3] (setting [9]) and in data set [3] (setting [10]) were 99% and 30%, respectively. This compound also registered an Average particle size in data set [5] of 104 μm. The Apparent specific volume in the data set “Apparent specific volume” amounted to 1.5 cm^3/g.

For `OC[C@H]1O[C@H](O[C@H]2O[C@H](CO)[C@@H](O)[C@H](O)[C@H]2O)[C@H](O)[C@@H](O)[C@@H]1O` [Trehalose N, trehalose], in [1] (listed as N), the “Proportion of particles of 75 μm or more” value is reported as 45%. The compound also displayed a Whiteness in [4] (listed as N) of 88%. The Average particle size in [5] (listed as N) was determined as 70 μm. Moreover, in “Apparent specific volume” (listed as N), the Apparent specific volume stood at 2.2 mL/g.

Turning to `OC[C@H]1O[C@H](O[C@H]2O[C@H](CO)[C@@H](O)[C@H](O)[C@H]2O)[C@H](O)[C@@H](O)[C@@H]1O` [Trehalose L, trehalose], in [1] (listed as L), the “Proportion of particles of 75 μm or more” value amounted to 25%. This compound also had a Whiteness in data set [4] (listed as L) of 95%. The Average particle size in data set [5] (listed as L) stood at 45 μm. For the same compound, the Apparent specific volume in “Apparent specific volume” (listed as L) is 2.5 mL/g.

Take `OC[C@H]1O[C@H](O[C@H]2O[C@H](CO)[C@@H](O)[C@H](O)[C@H]2O)[C@H](O)[C@@H](O)[C@@H]1O` [Trehalose D, trehalose]: the “Proportion of particles of 75 μm or more” value in data set [1] (listed as D) amounted to 1%. For the same compound, the Angle of repose in [2] (listed as D) and in data set [2] (listed as trehalose D) was 65 ° in each case. Also, the “Average particle size of granules” value in data set [8] (phenacetin 50/excipient 30/corn starch 10/microcrystalline cellulose 10, binding solution 100 g) is on record as 80 μm; in data set [8] (phenacetin granules, binding solution 120 g), 121 μm; in data set [8] (phenacetin granules, binding solution 160 g), 205 μm. Besides, in data set [4] (listed as D), the Whiteness was found to be 96%. The Average particle size in data set [5] (listed as D) is reported as 12 μm. For the same compound, in the data set “Apparent specific volume” (listed as D), the Apparent specific volume is recorded as 4.5 cm^3/g. For the same compound, the “Tablet hardness at a compression pressure of 1000 kg/cm^2” value stood at 4.5 kgf in data set [7] (binding solution 100 g), 4.1 kgf in data set [7] (binding solution 120 g) and 3.0 kgf in data set [7] (binding solution 160 g).

With `OC[C@H]1O[C@H](O[C@H]2O[C@H](CO)[C@@H](O)[C@H](O)[C@H]2O)[C@H](O)[C@@H](O)[C@@H]1O` [Trehalose H, trehalose], the “Proportion of particles of 75 μm or more” value in data set [1] is reported as 91%. In data set [2], the Angle of repose is given as 37 °. This compound also yielded a Whiteness in data set [4] of 98%. The compound also returned an Average particle size in data set [5] of 180 μm. Besides, the Apparent specific volume in “Apparent specific volume” is 1.5 cm^3/g.

Consider `OC[C@H]1O[C@H](O[C@H]2O[C@H](CO)[C@@H](O)[C@H](O)[C@H]2O)[C@H](O)[C@@H](O)[C@@H]1O` [Trehalose E, trehalose], for which the “Proportion of particles of 75 μm or more” value in data set [1] (listed as E) was 3%. Besides, the Angle of repose is on record as 55 ° in data set [2] (listed as E) and “more than 50 °” in data set [2] (listed as trehalose E). In data set [4] (listed as E), the Whiteness was 96%. In data set [5] (listed as E), the Average particle size came to 25 μm. Besides, the Apparent specific volume in the data set “Apparent specific volume” (listed as E) turned out to be 3.7 cm^3/g.
